Results as given in patent publication EP3516395B1, “METHOD FOR DETERMINING AFFINITY BETWEEN LIGANDS AND A TARGET” (Plant Advanced Technologies Pat, priority 2016, dated 2018).
Where two headings read alike, the source gives them in different places.

How the values were obtained:
[1] = test system: tyrosinase de champignon; assay: Relative affinity by competitive binding, ultrafiltration and UPLC-MS/UV (Example 1); details: equimolar ligands; for Facteur de normalisation, solution traitée: NFTB, peak area UV 270 nm relative to reference ligand moracénine B; for Affinités relatives: RA = NFTB/NFeq, reference ligand moracénine B
Description: Une solution de travail de tyrosinase de champignon à 1.25 mg/mL est préparée en dissolvant de la poudre de l'enzyme lyophilisée dans 50 mM d'acétate d'ammonium, avec un pH de 7.0. L'échantillon est préparé en utilisant l'un des solvants suivants : des glycols, DMSO (diméthylsulfoxide), l'éthanol, pur ou en solution dans l'eau. La concentration dans l'échantillon des ligands initiaux est équimolaire et doit être dans la gamme de 0,75 à 1 mM. Les ligands choisis étaient des inhibiteurs connus de la tyrosinase isolés depuis des racines de murier noir (Morus nigra) : la moracénine A, moracénine B et la kuwanone C. Un échantillon de référence est préparé également en diluant l'échantillon de 10 à 20 fois dans une solution d'eau et d'un quart de volume d'acétonitrile.
• 1. Étape de préconditionnement - Des puits à membrane filtrante sont pré-conditionnées avec un volume de 500 µl d'une solution à 85% d'acétate d'ammonium et 15% d'éthanol qui est passé à travers la membrane avec une centrifugation de 14000 g pendant 60 secondes. • 2. Étape de liaison - La préparation de tyrosinase (1.25 mg/mL, 75 µL) est mélangée avec 5 µl de l'échantillon dans un tube d'Eppendorf en plastique, puis est incubée pendant 5 min. Dans ce mélange, on a 9,16 µM de tyrosinase et une gamme de 46,88 µM à 62,5 µM de ligands (moracénine A, moracénine B et kuwanone C) soit un ratio ligands/cible allant de 5,12 à 6,83. • 3. Étape de lavage - le mélange de l'enzyme et de l'échantillon est déposé dans un puits préconditionné à l'étape de préconditionnement, puis centrifugé à 14000 g jusqu'à l'élimination de l'essentiel du solvant. Les complexes enzyme-ligands restent à la surface de la membrane du filtre puis sont à nouveau suspendu dans un volume de 100 µL de la même solution à 85% d'acétate d'ammonium et 15% d'éthanol et centrifugé à 14000 g jusqu'à élimination du solvant. Cette procédure est répétée trois fois et élimine tous les composés qui ne sont pas liés à l'enzyme. • 4. Étape de séparation - Les complexes enzyme-ligands retenus dans le filtre sont à nouveau suspendus dans un volume de 10 µL d'eau ultra-pure, puis sont mélangés avec un volume de 40 µL d'acétonitrile pour dénaturer et précipiter l'enzyme et, en même temps libérer les ligands. Le mélange est centrifugé à 21000 g pendant 10 min pour séparer le précipité du surnageant. • 5. Étape d'analyse - Ledit surnageant formant la solution traitée est analysé par chromatographie en phase liquide couplée à une spectrométrie de masse, connue également par l'acronyme UPLC-MS. L'échantillon de référence est analysé également de la même manière, en utilisant les mêmes conditions d'analyse. Les affinités relatives sont calculées selon la méthode décrite ci-après. De préférence, l'échantillon de référence et la solution traitée sont analysés séquentiellement pour éliminer des dispersions dues aux réglages de l'appareillage.
Une analyse par chromatographie en phase liquide fournit un chromatogramme tel que montré par les figures 1 et 2. Le chromatogramme représente une intensité de signal en fonction du temps de rétention dans une colonne. Le signal présente différents pics d'intensité variable. Chaque pic est associé à l'un des ligands présent dans l'échantillon et la solution traitée. • 1. Normalisation de l'intensité du signal analytique pour les ligands dans l'échantillon de référence. Pour chaque chaque ligand CEi dans l'échantillon de référence, on établit des facteurs de normalisation NFeq dudit ligand CEi par comparaison au ligand de référence REF, selon l'équation suivante : NFeq,CEi = (ISeq,CEi)/(ISeq,REF) [formula] où : • NF est un facteur de normalisation; • ISeq,CEi est l'intensité du signal analytique pour le ligand CEi dans l'échantillon; • ISeq,REF est l'intensité du signal analytique pour le ligand de référence REF dans l'échantillon. L'intensité peut être choisie parmi l'aire du pic ou la valeur maximale du pic. Le facteur de normalisation du ligand de référence vaut toujours 1. • 2. […]

[2] = target: collagénase issue de Clostridium histolyticum; details: J. Nat. Prod. 2005, 68, 794-796; cited from earlier work
[3] = test system: collagénase issue de Clostridium histolyticum; assay: Collagenase inhibition with synthetic substrate FALGPA (Example 4); assay type: biochemical; details: for activité de la collagénase: ligand 5µM, FALGPA 1 mM, tris-HCl buffer alone = 100%
Description: L'activité inhibitrice de la collagénase issue de Clostridium histolyticum a été expérimentée en mettant en présence de la collagénase et du substrat synthétique FALGPA (N-(3-[2-Furyl]acryloyl)-Leu-Gly-Pro-Ala) préparé à une concentration de 1 mM, du tampon tris-HCI seul pour établir une référence, et en présence respectivement de tampon tris-HCI additionné de 3,5-DCQ et 3,5-DCQ-DPG en concentration à 5µM. La référence montrant une activité de la collagénase de 100%, on a mesuré une activité de la collagénase de 94% en présence de 3,5-DCQ et une activité de 50% en présence de 3,5-DCQ-DPG. A cette concentration, la collagénase de Clostridium histolyticum est inhibée de manière significative par le 3,5-DCQ-DPG, tandis qu'elle ne l'est que très peu par le 3,5-DCQ.

[4] = test system: collagénase issue de Clostridium histolyticum; assay: Relative affinity by competitive binding, ultrafiltration and LC-MS (Examples 2, 3, 6); details: for Affinités relatives: reference 3,5-DCQ
Description: Une solution de travail de collagénase issue de Clostridium histolyticum à 6.25 mg/mL est préparée en dissolvant de la poudre de l'enzyme lyophilisée dans 50 mM d'acétate d'ammonium, avec un pH de 7.5, ajusté par une solution aqueuse d'ammoniac. L'échantillon est préparé en utilisant l'un des solvants suivants : des glycols, le DMSO (diméthylsulfoxide), l'éthanol, pur ou en solution dans l'eau. La concentration dans l'échantillon des ligands initiaux est équimolaire et doit être dans la gamme de 0,75 à 1 mM. Les ligands choisis étaient des isomères d'acide 3,5-dicaféoylquinique (noté 3,5-DCQ par la suite) et des isomères d'esters d'acide 3,5-dicaféoylquinique et de dipropylène glycol (noté 3,5-DCQ-DPG par la suite). Un échantillon de référence est préparé également en diluant l'échantillon de 10 à 20 fois dans une solution d'eau et d'un quart de volume d'acétonitrile.
• 1. Étape de préconditionnement - Des puits à membrane filtrante sont pré-conditionnées avec un volume de 500 µl d'acétate d'ammonium 50mM pH 7,5 qui est passé à travers la membrane avec une centrifugation de 14000 g pendant 60 secondes. • 2. Étape de liaison - Un volume de 75 µl de la solution de collagénase à une concentration de 6,25mg/ml dans 50 mM d'acétate d'ammonium, avec un pH de 7.5 est mélangé avec 10 µl de l'échantillon pendant 10 min dans un tube d'Eppendorf en plastique. Dans ce mélange, on a 55,79 µM de collagénase et une gamme de 93,75 µM à 125 µM de ligands (3,5-DCQ et 3,5-DCQ-DPG) soit un ratio ligands/cible entre […]. • 3. Étape de lavage - Le mélange de l'enzyme et de l'échantillon est déposé dans un puits préconditionné à l'étape de préconditionnement, puis centrifugé à 14000 g jusqu'à l'élimination de l'essentiel du solvant. Les complexes enzyme-ligands restent à la surface de la membrane du filtre puis sont à nouveau suspendu dans un volume de 100 µL de la même solution à 50 mM d'acétate d'ammonium, avec un pH de 7.5 et centrifugé à 14000 g jusqu'à élimination du solvant. Cette procédure est répétée trois fois et élimine tous les composés qui ne sont pas liés à l'enzyme. • 4. Étape de séparation - Les complexes enzyme-ligands retenus dans le filtre sont à nouveau suspendus dans un volume de 10 µL d'eau ultra-pure, puis sont mélangés avec un volume de 40 µL d'acétonitrile pour dénaturer et précipiter l'enzyme et, en même temps libérer les ligands. Le mélange est centrifugé à 21000 g pendant 10 min pour séparer le précipité du surnageant. • 5. Étape d'analyse - Ledit surnageant formant la solution traitée est analysé par chromatographie en phase liquide couplée à une spectrométrie de masse. L'échantillon de référence est analysé également de la même manière, en utilisant les mêmes conditions d'analyse. Les affinités relatives sont calculées selon la méthode décrite ci-après. Le résultat est sur la première ligne du tableau 3.
Plusieurs échantillons sont préparés comme dans l'exemple 2, mais avec une proportion entre les ligands 3,5-DCQ et 3,5-DCQ-DPG non plus équimolaire mais déséquilibrée, comme indiqué dans le tableau 3 ci-après.
L'analyse est conduite de la même manière que dans l'exemple 2. Les résultats sont de la deuxième à la quatrième ligne du tableau 3.
La préparation des échantillons (ligands et cible) et leur analyse ont été réalisés selon l'exemple 2. Les effets des variations du rapport de ligands/cible ont été évalués.
Une analyse par chromatographie en phase liquide fournit un chromatogramme tel que montré par les figures 1 et 2. Le chromatogramme représente une intensité de signal en fonction du temps de rétention dans une colonne. Le signal présente différents pics d'intensité variable. Chaque pic est associé à l'un des ligands présent dans l'échantillon et la solution traitée. • 1. Normalisation de l'intensité du signal analytique pour les ligands dans l'échantillon de référence. […]

[5] = ex. 2, molar ratio 3,5-DCQ-DPG/3,5-DCQ 1/1 (équimolaire)
[6] = ex. 3.1, molar ratio 3,5-DCQ-DPG/3,5-DCQ 0,5/1
[7] = ex. 3.2, molar ratio 3,5-DCQ-DPG/3,5-DCQ 0,2/1
[8] = ex. 3.3, molar ratio 3,5-DCQ-DPG/3,5-DCQ 3/1

Compound | Facteur de normalisation, solution traitée [1] | Affinités relatives [1] | IC50 [2] [µM] | activité de la collagénase [3] [%] | Facteur de normalisation, solution traitée [4, 5] | Affinités relatives [4, 5] | Facteur de normalisation, solution traitée [4, 6] | Affinités relatives [4, 6] | Facteur de normalisation, solution traitée [4, 7] | Affinités relatives [4, 7] | Facteur de normalisation, solution traitée [4, 8] | Affinités relatives [4, 8] | IC50 ([3]; approximate, from Example 4 (50% activity at 5µM)) [µM] | (RADCQ−DPG^Mx)/(RADCQ−DPG^Mref) ([4]; sample M_1: collagénase 32,1 µM, DCQ/DCQ-DPG 75/75 µM, ligands/collagénase 2,33, competition) | (RADCQ−DPG^Mx)/(RADCQ−DPG^Mref) ([4]; sample M_2: collagénase 32,1 µM, DCQ/DCQ-DPG 50/50 µM, ligands/collagénase 1,56, competition) | (RADCQ−DPG^Mx)/(RADCQ−DPG^Mref) ([4]; sample M_3: collagénase 32,1 µM, DCQ/DCQ-DPG 15/15 µM, ligands/collagénase 0,47, no competition)
moracénine B | 1,00 | 1,00 | – | – | – | – | – | – | – | – | – | – | – | – | – | –
O=C(/C=C/c1ccc(O)c(O)c1)OC1CC(O)(C(=O)O)CC(OC(=O)/C=C/c2ccc(O)c(O)c2)C1O (stereo not drawn) [3,5-DCQ, acide 3,5-dicaféoylquinique] | – | – | 23.6 | 94 | 1,00 | 1,00 | 1,00 | 1,00 | 1,00 | 1,00 | 1,00 | 1,00 | – | – | – | –
CC(C)=CCc1c(-c2ccc(O)cc2O)oc2c(CC=C(C)C)c(O)cc(O)c2c1=O [kuwanone C] | 0,78 | 1,07 | – | – | – | – | – | – | – | – | – | – | – | – | – | –
esters d'acide 3,5-dicaféoylquinique et de dipropylène glycol [3,5-DCQ-DPG] | – | – | – | 50 | 6,03 | 5,21 | 2,49 | 4,05 | 0,81 | 3,01 | 13,64 | 4,09 | ~5 | 0,96 | 0,71 | 0,47
